According to patent US20240287089A1, “Preparation and Uses of 7-Azaindenoisoquinolines” (Purdue Research Foundation, priority 0001, published 2024):

Tests used:
DU-145 (Prostate) = assay: NCI-60 cytotoxicity assay; format: cell-based, human; details: Homo sapiens; Prostate DU-145, 48 h; read-out: Cytotoxicity GI50
How it was run: (§1)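 Sulforhodamine B staining read-out: percentage growth is plotted against the common logarithm of concentration, from which GI50 is derived. Treatment lasts 48 h at five doses between 100 μM and 10 nM.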

HCT-116 (Colon) = assay: NCI-60 cytotoxicity assay; format: cell-based, human; details: Homo sapiens; Colon HCT-116, 48 h; read-out: Cytotoxicity GI50
How it was run: as §1

HOP-62 (Lung) = assay: NCI-60 cytotoxicity assay; format: cell-based, human; details: Homo sapiens; Lung HOP-62, 48 h; read-out: Cytotoxicity GI50
How it was run: as §1

MCF7 (Breast) = assay: NCI-60 cytotoxicity assay; format: cell-based, human; details: Homo sapiens; Breast MCF7, 48 h; read-out: Cytotoxicity GI50
How it was run: as §1

OVCAR-3 (Ovarian) = assay: NCI-60 cytotoxicity assay; format: cell-based, human; details: Homo sapiens; Ovarian OVCAR-3, 48 h; read-out: Cytotoxicity GI50
How it was run: as §1

SN12C (Renal) = assay: NCI-60 cytotoxicity assay; format: cell-based, human; details: Homo sapiens; Renal SN12C, 48 h; read-out: Cytotoxicity GI50
How it was run: as §1

UACC-62 (Melanoma) = assay: NCI-60 cytotoxicity assay; format: cell-based, human; details: Homo sapiens; Melanoma UACC-62, 48 h; read-out: Cytotoxicity GI50
How it was run: as §1

SF-539 (CNS) = assay: NCI-60 cytotoxicity assay; format: cell-based; details: Homo sapiens; CNS SF-539, 48 h; read-out: Cytotoxicity GI50
How it was run: as §1

NCI-60 cancer cell lines = assay: NCI-60 cytotoxicity assay, MGM; format: cell-based; details: Homo sapiens; read-out: MGM (average GI50 across NCI-60 panel)
How it was run: as §1

Caco-2 cells = assay: Caco-2 permeability; format: in vitro ADME; details: for Papp (A→B) / Papp (B→A): Caco-2, 5 μM, 2 h
Protocol: Caco-2 Permeability Studies. The Caco-2 plate was removed from the incubator and washed twice with pre-warmed HBSS (10 mM HEPES, pH 7.4), and then incubated at 37° C. for 30 min. The stock solutions of controls compounds were diluted in DMSO to get 1 mM solutions and then diluted with HBSS (10 mM HEPES, pH 7.4) to get 5 μM working solutions. The stock solutions of the test compounds were diluted in DMSO to get 1 mM solutions and then diluted with HBSS (10 mM HEPES, pH 7.4) to get 5 μM working solutions. The final concentration of DMSO in the incubation system was 0.5%. To determine the rate of drug transport in the apical to basolateral direction, 75 μL of 5 μM working solutions of test compounds was added to the Transwell insert (apical compartment) and the wells in the receiver plate (basolateral compartment) were filled with 235 μL of HBSS (10 mM HEPES, pH 7.4). To determine the rate of drug transport in the basolateral to apical direction, 235 μL of 5 μM working solutions of test compounds were to the receiver plate wells (basolateral compartment) and then the Transwell inserts (apical compartment) were filled with 75 μL of HBSS (10 mM HEPES, pH 7.4). Time 0 samples were prepared by transferring 50 μL of 5 μM working solution to wells of the 96-deepwell plate, followed by the addition of 200 μL cold methanol containing appropriate internal standards (IS). The plates were incubated at 37° C. for 2 h. […] An aliquot of 100 μL of the supernatant was mixed with an appropriate volume of ultra-pure water before LC-MS/MS analysis. To determine the Lucifer Yellow leakage after 2 h transport period, stock solution of Lucifer yellow was prepared in ultra-pure water and diluted with HBSS (10 mM HEPES, pH 7.4) to reach the final concentration of 100 μM and then 100 μL of the Lucifer yellow solution was added to each Transwell insert (apical compartment), followed by filling the wells in the receiver plate (basolateral compartment) with 300 μL of HBSS (10 mM HEPES, pH 7.4). The plates were incubated at 37° C. for 30 minutes. Samples (80 μL) were removed directly from the apical and basolateral wells (using the basolateral access holes) and transferred to wells of new 96 wells plates.

[1] = Maximum tolerated dose determination in NOD SCID mice; format: in vivo; details: QD x 5; for Body Weight %: 7 days after first dose; for Maximum tolerated dose (MTD): NOD SCID mice, IV, body weight % ≥80%
Protocol: Maximum Tolerated Dose Determinations. […]. […] Experiments involving 100 mg/kg doses of all three drugs were terminated after one day because of toxicity, while the study involving 50 mg/kg dose of G105 was also halted after one day (FIG. 12). Similarly, the investigation with a 40 mg/kg dose of G105 was discontinued after two days (FIG. 13).

[2] = human, 1 μM
Protocol: Analysis of Plasma Protein Binding and Stability in Human and Mouse Blood Plasma by Equilibrium Dialysis. Frozen plasma (stored at −80° C.) was thawed immediately in a 37° C. water bath. The working solutions of test compound and control compound were prepared in DMSO at 200 μM concentration, and the working solutions were spiked into plasma. The final concentration of compound was 1 μM. The final concentration of DMSO was 0.5%. Ketoconazole was used as positive control in the assay. The dialysis membranes were soaked in ultrapure water for 60 min to separate strips, then in 20% ethanol for 20 min, and then finally in dialysis buffer for 20 min. For equilibrium dialysis, each cell contained plasma sample (150 μL) and was dialyzed against an equal volume of dialysis buffer (PBS). The assay was performed in duplicate. The dialysis plate was sealed and incubated at 37° C. with 5% CO2 at 100 rpm for 6 h. At the end of incubation, samples (50 μL) from both buffer and plasma chambers were transferred to wells of a 96-well plate. Plasma (50 μL) was added to each buffer sample and an equal volume of PBS was added to the collected plasma sample. Cold acetonitrile (400 μL) containing internal standards (IS, 100 nM alprazolam, 200 nM labetalol, 200 nM imipramine and 2 μM ketoprofen) was added to precipitate protein and release compounds. Samples were vortexed for 2 min and centrifuged for 30 min at 3,220 g. An aliquot (100 μL) of the supernatant was diluted with ultra-pure H2O (100 μL), and the mixture was used for LC-MS/MS analysis. For stability determination in plasma, a spiked plasma sample (50 μL) was transferred to a new plate and incubated at 37° C., 5% CO2 for 0 and 6 h. At designated time points, PBS (50 μL) was added and mixed thoroughly, followed by the addition of room temperature quench solution [400 μL of acetonitrile containing internal standards (IS, 100 nM alprazolam, 200 nM labetalol, 200 nM imipramine and 2 μM ketoprofen)] to precipitate protein and release compounds. Samples were vortexed for 2 min and centrifuged for 30 min at 3,220 g. An aliquot (400 μL) of the supernatant was diluted by ultra-pure H2O, and the mixture was used for LC-MS/MS analysis. The concentrations of test compounds in the buffer and plasma chambers were determined from peak area ratios.

in vivo = details: male, CD1, mouse, iv, 20 mg/kg
Protocol: Brain Penetration Studies. […] The concentrations were determined by LC-MS/MS with direct measurement of the plasma samples. The brain tissue was homogenized with water using a 3:1 ratio of water (mL) to brain (g) before determination of the concentrations (ng/mL) in the brain homogenates, and the homogenate values then were multiplied by a factor of 4 to obtain the brain concentrations (ng/g).

c-Myc [3] = assay: Western blot of RS4;11 tumor xenograft tissue; format: in vivo, human
Excerpt: (§2) In several cases, the levels of c-Myc were more greatly depressed at the lower dose level. For examples, see the 9-hour data for G104 in Tables 17 and 18 and the 6-hour data in Table 19. […] Overall, there are many unexpected and unexplained aspects of the data in Tables 17-19, which are highly variable and also highly dependent on cell type. In particular, drug-induced increases in c-Myc expression relative to control and the larger changes in c-Myc expression seen at lower vs. higher doses are counterintuitive and unexplained.

γ-H2AX [4] = assay: Western blot of RS4;11 tumor xenograft tissue; format: in vivo, human
c-Myc [5] = assay: Western blot of MOLT-4 tumor xenograft tissue; format: in vivo, human
γ-H2AX [6] = assay: Western blot of MOLT-4 tumor xenograft tissue; format: in vivo, human
Excerpt: as §2

c-Myc [7] = assay: Western blot of RD-ES tumor xenograft tissue; format: in vivo, human
Excerpt: as §2

γ-H2AX [8] = assay: Western blot of RD-ES tumor xenograft tissue; format: in vivo, human
Excerpt: as §2

## COc1cc2c3c(n(CCCN4CCOCC4)c(=O)c2cc1OC)-c1nc2c(cc1C3=O)OCO2 [G101, 2,3-Dimethoxy-6-(3-morpholinopropyl)-5H-[1,3]dioxolo[4″,5″:5′,6′]pyrido[3′,2′:4,5]cyclopenta[1,2-c]isoquinoline-5,12(6H)-dione]
DU-145 (Prostate)
  GI50: 420 nM
HCT-116 (Colon)
  GI50: 460 nM
HOP-62 (Lung)
  GI50: 51 nM
MCF7 (Breast)
  GI50: 39 nM
OVCAR-3 (Ovarian)
  GI50: 4610 nM
SN12C (Renal)
  GI50: 2720 nM
UACC-62 (Melanoma)
  GI50: 150 nM
SF-539 (CNS)
  GI50: 230 nM
NCI-60 cancer cell lines
  GI50: 930 nM

## COc1cc2c3c(n(CCCn4ccnc4)c(=O)c2cc1OC)-c1nc2c(cc1C3=O)OCO2 [G102, 6-(3-(1H-Imidazol-1-yl)propyl)-2,3-dimethoxy-5H-[1,3]dioxolo[4″,5″:5′,6′]pyrido[3′,2′:4,5]cyclopenta[1,2-c]isoquinoline-5,12(6H)-dione]
DU-145 (Prostate)
  GI50: 58 nM
HCT-116 (Colon)
  GI50: 310 nM
HOP-62 (Lung)
  GI50: 29 nM
MCF7 (Breast)
  GI50: 26 nM
OVCAR-3 (Ovarian)
  GI50: 33400 nM
SN12C (Renal)
  GI50: 440 nM
UACC-62 (Melanoma)
  GI50: 42 nM
SF-539 (CNS)
  GI50: 39 nM
NCI-60 cancer cell lines
  GI50: 780 nM

## COc1cc2c3c(n(CCCNC(C)C)c(=O)c2cc1OC)-c1nc2c(cc1C3=O)OCO2 [G103, 6-(3-(Isopropylamino)propyl)-2,3-dimethoxy-5H-[1,3]dioxolo [4″,5″:5′,6′]pyrido[3′,2′:4,5]cyclopenta[1,2-c]isoquinoline-5,12(6H)-dione]
Caco-2 cells; Caco-2
  Recovery (%)AP-BL: 36.17%
  Recovery (%)BL-AP: 75.54%
Caco-2 cells
  Papp (A→B): 1.55 10^−6, cm/s
  Papp (B→A): 8.95 10^−6, cm/s
[1]; 5 mg/Kg IV
  Body Weight %: 92.4%
[1]; 10 mg/Kg IV
  Body Weight %: 93%
[1]; 15 mg/Kg IV
  Body Weight %: 93.9%
[1]; 20 mg/Kg IV
  Body Weight %: 86%
[1]; 30 mg/Kg IV
  Body Weight %: 85.1%
[1]; 40 mg/Kg IV
  Body Weight %: 85.3%
[1]; 50 mg/Kg IV
  Body Weight %: 86.6%
[1]; 60 mg/Kg IV
  Body Weight %: 74%
[1]
  Maximum tolerated dose (MTD): 50 mg/kg
DU-145 (Prostate)
  GI50: 1050 nM
HCT-116 (Colon)
  GI50: 1040 nM
HOP-62 (Lung)
  GI50: 470 nM
MCF7 (Breast)
  GI50: 100 nM
OVCAR-3 (Ovarian)
  GI50: 14300 nM
SN12C (Renal)
  GI50: 10600 nM
UACC-62 (Melanoma)
  GI50: 9840 nM
SF-539 (CNS)
  GI50: 1520 nM
NCI-60 cancer cell lines
  GI50: 2190 nM
[2]
  % Stability at 6 hrs: 94.96%
In vivo
  Cmax: 3810 ng/g

## CCNCCCn1c2c(c3cc(OC)c(OC)cc3c1=O)C(=O)c1cc3c(nc1-2)OCO3 [G104, 6-(3-(Ethylamino)propyl)-2,3-dimethoxy-5H-[1,3]dioxolo[4″,5″:5′,6′]pyrido [3′,2′:4,5]cyclopenta[1,2-c]isoquinoline-5,12(6H)-dione]
Caco-2 cells; Caco-2
  Efflux Ratio: 9.51
  Recovery (%)AP-BL: 54.60%
  Recovery (%)BL-AP: 81.64%
Caco-2 cells
  Papp (A→B): 1.69 10^−6, cm/s
  Papp (B→A): 16.04 10^−6, cm/s
[1]; 5 mg/Kg IV
  Body Weight %: 92.4%
[1]; 10 mg/Kg IV
  Body Weight %: 95.2%
[1]; 15 mg/Kg IV
  Body Weight %: 87%
[1]; 20 mg/Kg IV
  Body Weight %: 83.3%
[1]; 30 mg/Kg IV
  Body Weight %: 88.8%
[1]; 40 mg/Kg IV
  Body Weight %: 78.8%
[1]
  Maximum tolerated dose (MTD): 30 mg/kg
c-Myc [3]; RS4;11, IV 15 mg/kg, 3 h
  c-Myc/GAPDH, % Relative to Vehicle: 92.20 ± 2.11%
c-Myc [3]; RS4;11, IV 15 mg/kg, 9 h
  c-Myc/GAPDH, % Relative to Vehicle: 92.59 ± 13.64%
c-Myc [3]; RS4;11, IV 30 mg/kg, 3 h
  c-Myc/GAPDH, % Relative to Vehicle: 111.60 ± 8.19%
c-Myc [3]; RS4;11, IV 30 mg/kg, 9 h
  c-Myc/GAPDH, % Relative to Vehicle: 100.31 ± 2.71%
γ-H2AX [4]; RS4;11, IV 15 mg/kg, 3 h
  γ-H2AX/GAPDH, % Relative to Vehicle: 133.08 ± 38.59%
γ-H2AX [4]; RS4;11, IV 15 mg/kg, 9 h
  γ-H2AX/GAPDH, % Relative to Vehicle: 142.66 ± 23.92%
γ-H2AX [4]; RS4;11, IV 30 mg/kg, 3 h
  γ-H2AX/GAPDH, % Relative to Vehicle: 150.28 ± 29.86%
γ-H2AX [4]; RS4;11, IV 30 mg/kg, 9 h
  γ-H2AX/GAPDH, % Relative to Vehicle: 220.37 ± 47.79%
c-Myc [5]; MOLT-4, IV 15 mg/kg, 3 h
  c-Myc/GAPDH, % Relative to Vehicle: 119.75 ± 13.40%
c-Myc [5]; MOLT-4, IV 15 mg/kg, 9 h
  c-Myc/GAPDH, % Relative to Vehicle: 88.54 ± 7.63%
c-Myc [5]; MOLT-4, IV 30 mg/kg, 3 h
  c-Myc/GAPDH, % Relative to Vehicle: 114.32 ± 4.41%
c-Myc [5]; MOLT-4, IV 30 mg/kg, 9 h
  c-Myc/GAPDH, % Relative to Vehicle: 100.33 ± 2.35%
γ-H2AX [6]; MOLT-4, IV 15 mg/kg, 3 h
  γ-H2AX/GAPDH, % Relative to Vehicle: 71.86 ± 8.95%
γ-H2AX [6]; MOLT-4, IV 15 mg/kg, 9 h
  γ-H2AX/GAPDH, % Relative to Vehicle: 138.12 ± 23.51%
γ-H2AX [6]; MOLT-4, IV 30 mg/kg, 3 h
  γ-H2AX/GAPDH, % Relative to Vehicle: 47.29 ± 12.20%
γ-H2AX [6]; MOLT-4, IV 30 mg/kg, 9 h
  γ-H2AX/GAPDH, % Relative to Vehicle: 168.88 ± 39.58%
c-Myc [7]; IV 15 mg/kg, 3 h
  c-Myc/GAPDH, % Relative to Vehicle: 128.94 ± 6.14%
c-Myc [7]; IV 15 mg/kg, 6 h
  c-Myc/GAPDH, % Relative to Vehicle: 53.57 ± 10.75%
c-Myc [7]; IV 30 mg/kg, 3 h
  c-Myc/GAPDH, % Relative to Vehicle: 188.78 ± 28.24%
c-Myc [7]; IV 30 mg/kg, 6 h
  c-Myc/GAPDH, % Relative to Vehicle: 91.67 ± 23.70%
γ-H2AX [8]; IV 15 mg/kg, 3 h
  γ-H2AX/GAPDH, % Relative to Vehicle: 155.18 ± 11.44%
γ-H2AX [8]; IV 15 mg/kg, 6 h
  γ-H2AX/GAPDH, % Relative to Vehicle: 101.89 ± 7.35%
γ-H2AX [8]; IV 30 mg/kg, 3 h
  γ-H2AX/GAPDH, % Relative to Vehicle: 85.61 ± 23.26%
γ-H2AX [8]; IV 30 mg/kg, 6 h
  γ-H2AX/GAPDH, % Relative to Vehicle: 99.26 ± 10.19%
DU-145 (Prostate)
  GI50: 550 nM
HCT-116 (Colon)
  GI50: 1180 nM
HOP-62 (Lung)
  GI50: 200 nM
MCF7 (Breast)
  GI50: 75 nM
OVCAR-3 (Ovarian)
  GI50: 11300 nM
SN12C (Renal)
  GI50: 4610 nM
UACC-62 (Melanoma)
  GI50: 1810 nM
SF-539 (CNS)
  GI50: 680 nM
NCI-60 cancer cell lines
  GI50: 1450 nM
[2]
  % Stability at 6 hrs: 86.15%
In vivo
  Cmax: 1610 ng/g
  Vd: 58.4 L/kg
  half-life: 7.06 h
